Assay results reported in patent US9273058B2 (BRISTOL-MYERS SQUIBB COMPANY, priority 2013, dated 2016).
pIC50: −log10 of the molar value. Read-outs that look alike come from different tables or passages of the source.

What was measured:
[1] = target: CK1ε (Homo sapiens, UniProt P49674); assay: CK1ε kinase assay (Caliper LabChip electrophoretic separation of fluoresceinated peptide substrate and product); format: biochemical; details: 200 pM CK1ε, 50 μM ATP, 1.5 μM peptide, 22 hours at room temperature; read-out: CK1ε IC50 range
How it was run: (§1)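 Kinase reactions ran 22 h at room temperature, were stopped with EDTA, and phosphorylated product was separated electrophoretically from unphosphorylated fluoresceinated peptide. Compounds were tested at eleven concentrations from 10 mM DMSO stocks. IC50 by non-linear regression.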

[2] = target: CK1δ (Homo sapiens, UniProt P48730); assay: CK1δ kinase assay (Caliper LabChip electrophoretic separation of fluoresceinated peptide substrate and product); format: biochemical; details: 200 pM CK1δ, 50 μM ATP, 1.5 μM peptide, 22 hours at room temperature; read-out: CK1δ IC50 range
How it was run: as §1

[3] = tested on: pancreatic tumor cell; details: in vitro; Brockschmidt et al., Gut 2008; cited from earlier work
[4] = tested on: pancreatic tumor cell; details: in vivo; Brockschmidt et al., Gut 2008; cited from earlier work

Chain of CK1δ (P48730 whole entry): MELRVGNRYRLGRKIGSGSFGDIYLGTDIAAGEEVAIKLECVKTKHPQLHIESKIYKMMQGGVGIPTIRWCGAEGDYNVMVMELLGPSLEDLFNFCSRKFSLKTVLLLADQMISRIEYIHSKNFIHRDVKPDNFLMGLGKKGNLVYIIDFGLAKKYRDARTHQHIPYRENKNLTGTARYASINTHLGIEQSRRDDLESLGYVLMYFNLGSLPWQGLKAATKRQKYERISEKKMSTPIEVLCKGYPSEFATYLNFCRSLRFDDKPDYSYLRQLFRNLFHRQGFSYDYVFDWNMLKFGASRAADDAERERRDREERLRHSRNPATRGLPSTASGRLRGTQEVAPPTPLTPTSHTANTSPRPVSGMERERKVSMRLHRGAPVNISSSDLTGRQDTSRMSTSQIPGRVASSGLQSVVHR
Chain of CK1ε (P49674 whole entry): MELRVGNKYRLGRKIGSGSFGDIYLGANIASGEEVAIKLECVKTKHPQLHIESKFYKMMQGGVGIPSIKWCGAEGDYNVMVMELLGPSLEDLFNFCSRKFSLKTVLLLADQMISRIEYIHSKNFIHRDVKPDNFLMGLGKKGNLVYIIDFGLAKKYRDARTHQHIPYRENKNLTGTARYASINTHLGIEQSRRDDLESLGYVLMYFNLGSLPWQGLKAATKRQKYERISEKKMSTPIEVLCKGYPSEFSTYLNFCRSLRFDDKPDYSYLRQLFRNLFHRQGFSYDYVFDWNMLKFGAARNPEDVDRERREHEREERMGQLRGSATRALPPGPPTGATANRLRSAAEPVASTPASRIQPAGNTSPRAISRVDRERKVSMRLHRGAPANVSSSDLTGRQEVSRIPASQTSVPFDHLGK

Row | pIC50 [1] | pIC50 [2] | Compound | pancreatic tumor cell growth [3] | pancreatic tumor cell growth [4]
1 | 8.00 to 11.00 | 8.00 to 11.00 | CC(=O)N1CC2(C1)CN(C(=O)NC(C)(C)C)Cc1c(C(N)=O)c(-c3ccc(F)c(Cl)c3)nn12 [Compound A135, 1-Acetyl-N^5′-(tert-butyl)-2′-(3-chloro-4-fluorophenyl)-4′H-spiro[azetidine-3,7′-pyrazolo[1,5-a]pyrazine]-3′,5′(6′H)-dicarboxamide] | – | –
2 | 8.00 to 11.00 | 8.00 to 11.00 | CC(C)(C)NC(=O)N1Cc2c(C(N)=O)c(-c3ccc(F)c(Cl)c3)nn2C(CF)(CF)C1 [Compound A136] | – | –
3 | 8.00 to 11.00 | 8.00 to 11.00 | NC(=O)c1c(-c2ccc(F)c(Cl)c2)nn2c1CN(C(=O)NC13CCC(F)(CC1)C3)CC2 [Compound A137, 2-(3-Chloro-4-fluorophenyl)-N^5-(4-fluorobicyclo[2.2.1]heptan-1-yl)-6,7-dihydropyrazolo[1,5-a]pyrazine-3,5(4H)-dicarboxamide] | – | –
4 | 8.00 to 11.00 | 8.00 to 11.00 | NC(=O)c1c(-c2ccc(F)c(Cl)c2)nn2c1CN(C(=O)NC13CCC(CF)(CC1)C3)CC2 [Compound A138, 2-(3-Chloro-4-fluorophenyl)-N^5-(4-(fluoromethyl)bicyclo[2.2.1]heptan-1-yl)-6,7-dihydropyrazolo[1,5-a]pyrazine-3,5(4H)-dicarboxamide] | – | –
5 | 8.00 to 11.00 | 8.00 to 11.00 | NC(=O)c1c(-c2ccc(F)c(Cl)c2)nn2c1CN(C(=O)NC13CCC(C(F)F)(CC1)C3)CC2 [Compound A139, 2-(3-Chloro-4-fluorophenyl)-N^5-(4-(difluoromethyl)bicyclo[2.2.1]heptan-1-yl)-6,7-dihydropyrazolo[1,5-a]pyrazine-3,5(4H)-dicarboxamide] | – | –
6 | 8.00 to 11.00 | 8.00 to 11.00 | N#CC12CCC(NC(=O)N3CCn4nc(-c5ccc(F)c(Cl)c5)c(C(N)=O)c4C3)(CC1)C2 [Compound A140, 2-(3-Chloro-4-fluorophenyl)-N^5-(4-cyanobicyclo[2.2.1]heptan-1-yl)-6,7-dihydropyrazolo[1,5-a]pyrazine-3,5(4H)-dicarboxamide] | – | –
7 | – | – | COc1cc(OC)c(C=C2C(O)=Nc3ccccc32)c(OC)c1 [IC261] | reduces pancreatic tumor cell growth | reduces pancreatic tumor cell growth
8 | 8.00 to 11.00 | 8.00 to 11.00 | NC(=O)c1c(-c2ccc(Cl)c(Cl)c2)nn2c1CN(C(=O)N[C@H]1C[C@H](OC(F)(F)F)C1)CC2 [compound 265] | – | –
9 | 8.00 to 11.00 | 8.00 to 11.00 | NC(=O)c1c(-c2ccc(Cl)c(Cl)c2)nn2c1CN(C(=O)NC1(CF)CC(F)(F)C1)CC2 [compound 303] | – | –
10 | 8.00 to 11.00 | 8.00 to 11.00 | N#CC1(NC(=O)N2CCn3nc(-c4ccc(Cl)c(Cl)c4)c(C(N)=O)c3C2)CCOC1 (stereo not shown) [compound 335] | – | –
11 | 8.00 to 11.00 | 8.00 to 11.00 | N^5-(tert-Butyl)-2-(3-chloro-4-fluorophenyl)-7-(2-cyanoethyl)-6,7-dihydropyrazolo[1,5-a]pyrazine-3,5(4H)-dicarboxamide [Compound A104] | – | –
